Values of other authors, collected in US11647710B2, “Method for preparation of soybean leaf having high content of isoflavone derivative in dark condition and soybean leaf having high content of isoflavone derivative prepared thereby” (INDUSTRY-ACADEMIC COOPERATION FOUNDATION GYEONGSANG …, priority 2019, dated 2023).

Target: ER-beta (estrogen receptor beta) (Rattus norvegicus, UniProt Q62986)
Conditions: Endocrinology 1997, 863; cited from earlier work

ER-beta (estrogen receptor beta), sequence (Q62986 whole entry): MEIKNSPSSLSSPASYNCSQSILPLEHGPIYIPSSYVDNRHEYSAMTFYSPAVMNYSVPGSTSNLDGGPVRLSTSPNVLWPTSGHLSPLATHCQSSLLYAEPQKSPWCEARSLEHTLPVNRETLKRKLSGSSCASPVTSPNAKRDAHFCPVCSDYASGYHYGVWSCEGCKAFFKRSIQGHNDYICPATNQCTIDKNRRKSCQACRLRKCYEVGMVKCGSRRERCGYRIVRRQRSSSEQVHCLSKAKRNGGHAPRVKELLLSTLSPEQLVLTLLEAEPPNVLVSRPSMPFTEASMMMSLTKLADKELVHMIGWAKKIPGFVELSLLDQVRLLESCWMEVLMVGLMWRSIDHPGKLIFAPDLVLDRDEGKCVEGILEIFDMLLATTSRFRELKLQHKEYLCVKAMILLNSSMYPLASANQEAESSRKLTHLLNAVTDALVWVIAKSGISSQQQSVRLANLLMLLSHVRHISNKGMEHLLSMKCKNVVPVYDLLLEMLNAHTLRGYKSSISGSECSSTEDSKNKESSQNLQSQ

O=c1c(-c2ccc(O)cc2)coc2cc(O)ccc12 [daidzein]
affinity for ER-beta: high affinity
